We go through three compounds from paper PMC11729428, “New Potent Inhibitor of Transforming Growth Factor-Beta (TGFβ) Signaling that is Efficacious against Microsatellite Stable Colorectal Cancer Metastasis in Combination with Immune Checkpoint Therapy in Mice” (ACS Pharmacology & Translational Science, 2024).

Molecules are shown by their SMILES. pIC50: −log10 of the molar value. Converted amounts (≈) assume the structure as drawn. Like-named read-outs stand apart in the source and are kept apart here.

Data set [1] is described as follows: Exploratory toxicology study in SD rats. The settings on record: for Degeneration of heart valves (histopathology grade): HYL001: after 4 weeks of repeated dosing, vactosertib: after 7–8 days of treatment; for Retained hypertrophied cartilage physis in sternum and femur (grade): vactosertib: all animals, HYL001: a few females.
Method: (§1) Sprague-Dawley rats were procured from Hylasco Bio-Technology Pvt. Ltd., Hyderabad. After completion of
(§2) the acclimatization period twelve healthy rats were randomly allocated to the control and treatment g roups.
(§3) mg/kg BID) treated animals, having three rats/sex/group. Rats from control group received vehicle, consisting
(§4) quantity sufficient to 1% w/v Carboxy Methyl Cellulose Sodium Salt. Rats from treatment groups were
(§5) administered with suspensions of the indicated drugs in vehicle, orally twice a day fo r an intended period of 28
(§6) consecutive days. The dosing volume was kept constant at 10 mL/kg for each rat.
(§7) clinical sign that worsened during the treatment, were necropsied in the shortest time for ethical reasons. The
(§8) rest of the rats were necropsied at the end of the treatment.
(§9) asphyxiation on day 29, except for one group of HYL001 treated rats with 71 mg/kg BID, that were allowed to
(§10) recover from treatment for further 28 days.
(§11) The rats were subjected to detailed gross pathological examination which included careful examination of the
(§12) external surface of the body, all orifices and the cranial, thoracic and abdominal cavities and their contents. After
(§13) gross pathological examination the vital organs were trimmed of any adherent tissue and were weighed wet.
(§14) Paired organs were weighed together. Organ weights relative to terminal body weights were calculated for each
(§15) Parameters evaluated during the study included in-life observations such as clinical signs observation, body
(§16) weights, percent body weight gains, and feed consumption. Parameters like hematology, clinical chemistry,
(§17) gross pathology, and organ weights were evaluated on the day of termination. Several organs/tissues were further
(§18) processed and evaluated for histopathology, where special attention was given to bones, gastrointestinal system
(§19) (stomach, duodenum, jejunum, ileum, caecum, colon and rectum), heart, and vascular lesions in the aorta and
(§20) coronary arteries. For histopathology, 3-5 μM thick tissue sections were cut and stained with hematoxylin-eosin
(§21) stain. The heart was trimmed by longitudinally bisecting along a plane perpendicular to the plane of the
(§22) pulmonary artery to expose the right atrioventricular, left atrioventricular, and aortic valves. Both halves of the
(§23) heart were embedded as hemisection in paraffin with the cut surface down. Blocks were sectioned to obtain at
least three heart valves.
Data set [2] can be described thus: Exploratory toxicology study in Balb/C mice. Type of data set: in vivo. As to the method: In comparison to that in rats, toxicity of TGFβ receptor-1 inhibitors in mice was less severe (Figure 4). […] Histopathology examination in bones found relatively mild phenotypes (Figure 4A).
performed using GraphPad Prism statistical software version 5.02 for Windows, GraphPad Software, San Diego
The study design in mice was similar as in rats, except 5 mice of each sex were used (n=10 in total), and that
there was not a recovery group. All analyses were performed at day 29 after termination of treatment.

The nature of data set [3]: Solubility. The data set is classed as physicochemical. As to the method:
The solubilities in this solution are 0.7 mg/mL (1b) and 0.23 mg/mL (1a). In most in vivo experiments, a homogeneous suspension in the following vehicle was used: sodium carboxymethylcellulose (1%), sodium dodecyl sulfate (0.4%), polyvinylpyrrolidone (0.085%), and antifoam-A (0.05%). The solubilities in this vehicle are approximately 0.15 mg/mL (1b) and 0.09 mg/mL (1a). […] Therefore, as a proof-of-concept, we leveraged the hydroxyl handle to design HYL002. We added a carbonyl-4-piperidinopiperidine group, in analogy to the ester that solubilizes SN-38 into irinotecan, and that can be cleaved via hydrolysis inside cells[19] (Figure S1). HYL001 reacted with commercially available 4-piperidinopiperidine-1-carbonyl chloride in chloroform using triethylamine and catalytic amounts of DMAP (Scheme S1). We then transformed the resulting compound HYL002 into the corresponding HCl salt to aid the in vivo drug formulation. The free base was dissolved in dioxane under N2, where it was treated dropwise with 10 equiv of 4 M HCl in dioxane at room temperature with vigorous stirring. The reaction mixture was then taken to dryness in vacuo, giving the HCl salt of HYL002.

Data set [4] concerns the target hERG potassium channel (Homo sapiens, UniProt Q12809). As to the kind of experiment: in vitro. Conditions: CHO-K1 cells (hERG current).
Method: clamp (Eurofins, Celle L’Evescault, France) on CHO -K1 cells. The tail current amplitude, induced by a one
second test pulse to -40 mV after a two second pulse to +20 mV, was measured before and aft er drug incubation
and expressed as % inhibition.
Data set [5] deals with mouse tumor organoids (MTOs), CRC liver metastases. The data set can be described thus: Prevention of liver metastasis formation after MTO injection (monotherapy). Type of data set: in vivo, mice. The settings on record: 0.1× dose: 71 mg/kg BID HYL001, 80 mg/kg BID galunisertib. As to the method: We first assayed the capacity of HYL001 to inhibit liver metastasis formation as a monotherapy. In this model, we inoculated MTOs derived from liver metastases into the portal vein (by intrasplenic or direct intravenous injection) to model their becoming trapped in hepatic sinusoids and, depending on their metastatic capacity, the initiation of liver nodules. […] Remarkably, 0.1 × mol equiv (71 mg/kg BID) of HYL001 was sufficient to prevent metastasis formation in 10 out of 11 animals.
Figure 5 HYL001 prevents metastasis formation in vivo. (A) Experimental scheme, including injection of MTOs. Experimental end point was at day 28, 2 weeks after treatment stop. […] (B) Liver metastases (Mets) were counted at end points; each point represents one mouse. Nonparametric Mann–Whitney U test, two-tailed. ns: P > 0.05; *P < 0.05; **P < 0.01; ***P < 0.001; (C) representative images of H & E whole slides containing liver sections from mice treated with TGFβ inhibitors; dashed line circles delimit metastases. […] 0.3× and 0.1×: dilutions thereof. Bars, 10 mm.
For all tumor cell injections, C57BL/6J (or athymic BALB/C nu/nu) mice were purchased from Janvier at 6 weeks of age and injected at 7–8 weeks. Sex was matched with the origin of the tumor organoids, i.e., males for this study. […] Visible liver metastases were counted, and data were analyzed using GraphPad Prism software (v.7.03). […]

For data set [6] the following is noted: rat, in vivo.
Method: as §1, §2, §3, §4, §5, §6, §7, §8, §9, §10, §11, §12, §13, §14, §15, §16, §17, §18, §19, §20, §21, §22, §23
least three heart valves.
The target in data set [7] is T1, p38α (Homo sapiens, UniProt Q16539).
T1 construct: p38alpha was used as a full -length recombinant protein; purchased Eurofins Pharma Discovery Services / Eurofins Cerep (Kinase Profiler service)
T1 sequence (Q16539 whole entry): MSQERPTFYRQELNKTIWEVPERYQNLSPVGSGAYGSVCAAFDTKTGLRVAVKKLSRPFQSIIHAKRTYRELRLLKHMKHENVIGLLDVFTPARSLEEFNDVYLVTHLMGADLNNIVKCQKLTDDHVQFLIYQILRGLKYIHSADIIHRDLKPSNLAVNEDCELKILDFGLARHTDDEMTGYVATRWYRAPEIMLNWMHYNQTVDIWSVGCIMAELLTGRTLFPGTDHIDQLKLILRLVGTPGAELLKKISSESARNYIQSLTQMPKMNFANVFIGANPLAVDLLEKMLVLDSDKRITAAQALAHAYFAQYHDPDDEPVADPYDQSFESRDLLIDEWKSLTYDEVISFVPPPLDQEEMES
The data set can be described thus: Radiometric in vitro kinase activity assay (Kinase Profiler). Type of data set: biochemical. Conditions: full-length recombinant protein; read-out: kinase inhibition IC50, p38α. On the procedure:
5. Methods for In vitro characterizations of HYL001
Kinase affinity and selectivity […]
The activity, measured as IC50, of inhibitors was determined by radiometric γ-33P-ATP-mediated in vitro phosphorylation assays, using the Kinase Profiler service from Eurofins Pharma Discovery Services (Wolverhampton, UK) and Eurofins Cerep (Celle L’Evescault, France). Compounds, prepared in 100% DMSO, were tested using a 9-point curve with half -log serial dilutions (1–10,000 nM). […]

For data set [8] the following is noted: oral, cited from earlier work.
Setting [9] is: aqueous dosing vehicle (NaCMC/SDS/PVP/antifoam-A), aqueous with cosolvent or surfactant or cyclodextrin, vehicle: sodium carboxymethylcellulose (1%), sodium dodecyl sulfate (0.4%), polyvinylpyrrolidone (0.085%), antifoam-A (0.05%), read-out: Solubility.

hERG potassium channel, sequence (Q12809 whole entry): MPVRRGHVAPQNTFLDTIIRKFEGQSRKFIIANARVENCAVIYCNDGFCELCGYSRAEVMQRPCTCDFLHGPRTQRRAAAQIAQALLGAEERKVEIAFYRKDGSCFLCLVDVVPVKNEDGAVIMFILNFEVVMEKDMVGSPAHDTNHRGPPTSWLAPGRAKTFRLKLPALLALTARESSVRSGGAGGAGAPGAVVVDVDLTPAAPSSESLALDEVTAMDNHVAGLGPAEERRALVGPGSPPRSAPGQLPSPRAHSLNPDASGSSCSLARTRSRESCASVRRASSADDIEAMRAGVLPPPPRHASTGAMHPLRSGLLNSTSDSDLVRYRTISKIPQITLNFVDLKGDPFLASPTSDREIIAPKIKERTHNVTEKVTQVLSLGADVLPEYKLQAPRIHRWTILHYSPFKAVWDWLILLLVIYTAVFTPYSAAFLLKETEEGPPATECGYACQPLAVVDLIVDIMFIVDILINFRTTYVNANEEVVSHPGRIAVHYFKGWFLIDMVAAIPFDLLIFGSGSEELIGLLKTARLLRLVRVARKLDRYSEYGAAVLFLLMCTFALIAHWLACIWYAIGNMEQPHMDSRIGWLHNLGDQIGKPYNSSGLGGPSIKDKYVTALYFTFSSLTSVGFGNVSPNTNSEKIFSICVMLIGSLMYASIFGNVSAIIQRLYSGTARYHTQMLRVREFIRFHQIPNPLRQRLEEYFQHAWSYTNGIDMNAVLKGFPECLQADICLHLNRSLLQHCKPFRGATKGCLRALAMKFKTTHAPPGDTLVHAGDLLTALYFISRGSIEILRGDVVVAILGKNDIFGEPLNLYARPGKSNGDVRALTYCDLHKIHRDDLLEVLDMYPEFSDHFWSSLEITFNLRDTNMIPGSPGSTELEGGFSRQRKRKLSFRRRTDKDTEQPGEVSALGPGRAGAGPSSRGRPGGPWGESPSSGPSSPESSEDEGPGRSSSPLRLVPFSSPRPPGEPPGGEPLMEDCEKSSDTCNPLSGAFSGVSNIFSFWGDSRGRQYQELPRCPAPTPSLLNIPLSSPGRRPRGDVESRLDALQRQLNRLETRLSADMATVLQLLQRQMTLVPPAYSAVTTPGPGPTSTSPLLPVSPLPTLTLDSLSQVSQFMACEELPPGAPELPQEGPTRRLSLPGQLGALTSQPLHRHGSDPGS

With `Cc1cccc(-c2nn3c(c2-c2ccnc4ccc(O)cc24)CCC3)n1` [HYL001, 4-(2-(6-Methylpyridin-2-yl)-5,6-dihydro-4H-pyrrolo[1,2-b]pyrazol-3-yl)quinolin-6-ol], in data set [1], the “Degeneration of heart valves (histopathology grade)” value is listed as “minimal to mild”; the “Retained hypertrophied cartilage physis in sternum and femur (grade)” value was “mild”. For the same compound, in data set [1] (low-dose group 1 (25 mg/kg BID)), the Heart abnormalities result is “no heart abnormalities were observed”. Besides, the no-observed-adverse-effect level in data set [1] (male rats) is on record as 25 mg/kg BID. The “Effects on body weight (gain), feed consumption, hematology, and clinical chemistry analytes” value in data set [1] (rats of both sexes, oral, either dose level) is reported as “no HYL001-related effects”. In data set [2] (mouse, in vivo), the “Female mice with slight inflammatory infiltrates in liver” value is given as 2/5 and the “Mortality or signs of morbidity” value is on record as “No mortality or signs of morbidity”. Also, in data set [3] (PBS/2-hydroxypropyl-β-cyclodextrin solution, aqueous with cosolvent or surfactant or cyclodextrin, solution of PBS/2-hydroxypropy-β-cyclodextrin (1 g/mL), read-out: Solubility), the solubility (as a rule, the concentration that dissolves in the medium under given conditions) is 230 µg/mL (≈ 672 µM). The solubility in data set [3] (setting [9]) was around 90 µg/mL (≈ 263 µM). Moreover, the Solubility in water entry in data set [3] is reported as “poorly soluble”. In data set [4], at 3.7 µM the inhibition was 1.8%, at 11.1 µM the inhibition was 8.4% and 33.3 µM produced 22.8% inhibition. The “Number of mice without detectable liver metastases (liver mets NO)” value in data set [5] is on record as 10 out of 11. Moreover, the “Animals showing a curved sternum at death or end point” value in data set [6] is recorded as “Some female rats”. Further, the negative logarithm of the IC50 (pIC50) (in general, the IC50 on a negative log10 scale, so that one unit is a factor of ten) in data set [7] was 6.26.
As to `Cc1cccc(-c2nn3c(c2-c2ccnc4ccc(C(N)=O)cc24)CCC3)n1` [galunisertib], the solubility in data set [3] (setting [9]) was around 150 µg/mL (≈ 406 µM). Moreover, in data set [3] (solution of PBS/2-hydroxypropy-β-cyclodextrin (1 g/mL)), the solubility amounted to 700 µg/mL (≈ 1890 µM). Besides, in data set [3], the Solubility in water entry was “poorly soluble”. Moreover, the “Number of mice with detectable liver metastases (liver mets YES)” value in data set [5] was “All treated animals developed metastases”. Besides, in data set [8] (mice (♀ CD-1), 75 mg/kg ref 20), the AUClast was 3110 ng·h/mL; the Cmax (in general, the peak of the concentration-time curve) is listed as 3330 ng/mL; the T1/2 was 84 min; the Tmax – broadly, the time from dosing to the highest level – is 30 min. In addition, the negative-log IC50 (pIC50) in data set [7] was 6.04.
As to `Cc1cccc(-c2[nH]c(CNc3ccccc3F)nc2-c2ccc3ncnn3c2)n1` [vactosertib, N -((4-([1,2,4]Triazolo[1,5-a]Pyridin-6-Yl)-5-(6-Methylpyridin-2-Yl)-1 H -Imidazole-2-Yl)Methyl)-2-Fluoroaniline], in data set [1], the “Degeneration of heart valves (histopathology grade)” value is reported as “moderate”; the “Retained hypertrophied cartilage physis in sternum and femur (grade)” value is recorded as “mild–moderate”. In data set [1] (at early end points (day 7–8)), the “Animals with chronic inflammation of the myocardium” value is “all 6”. The Mortality result in data set [1] (group 4, equimolar dose (82 mg/kg BID)) was “all female rats were found dead on day 7 and all male rats had to be sacrificed on day 8”. Moreover, the “Mortality or signs of morbidity” value in data set [2] (equimolar dose, mice) is “No mortality or signs of morbidity”. The “Female mice with slight inflammatory infiltrates in liver” value in data set [2] (female, Balb/C, mouse, in vivo, 29 day) is recorded as 4/5. The Neutrophil count result in data set [2] (mouse, in vivo) is recorded as “slight increase”. In data set [8] (mice (FVB/N), 10 mg/kg ref 21), the AUCinf is 752 ng·h/mL, the AUClast is 724 ng·h/mL, the Cl/F is reported as 222 mL/min/kg and the Cmax is listed as 625 ng/mL. In addition, in data set [8] (mice (FVB/N), 10 mg/kg ref 21), the T1/2 is 196 min, the Tmax is 30 min and the Vss/F was 18 L/kg. Moreover, in data set [6], the “Animals showing a curved sternum at death or end point” value was “all”; the “Microscopic findings along the gastrointestinal tract” value was “minimal hyperplasia of the nonglandular stomach and chronic inflammation observed in one female rat”.
